{"source": "paper PMC3127118", "about": "“Characterization of a Deswapped Triple Mutant Bovine Odorant Binding Protein” (2011)", "biological_target": "T1, GCC-bOBP (monomeric triple mutant of bovine odorant binding protein) (Bos taurus, UniProt P07435, W64C/INS121G/H155C)", "T1 construct": "GCC-bOBP, deswapped monomeric triple mutant", "T1 sequence (P07435 with tags, fused parts or gaps W64C/INS121G/H155C)": "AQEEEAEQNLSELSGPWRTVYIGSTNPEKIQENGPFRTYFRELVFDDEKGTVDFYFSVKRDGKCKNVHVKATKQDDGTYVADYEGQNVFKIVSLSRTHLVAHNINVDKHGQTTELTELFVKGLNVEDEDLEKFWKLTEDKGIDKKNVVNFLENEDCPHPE", "assay": "fluorescence titration (direct AMA fluorescence, excitation […] nm; FRET from Trp, excitation […] nm, gave Kd […]), pH […] °C", "data": [{"compound": "Nc1cccc2cc3ccccc3cc12", "note": "[AMA, 1-aminoanthracene]", "values": [{"measurement": "Kd", "result": "5 ± 0.2", "unit": "µM"}]}]}
